Assay results reported in patent US6737383B1, “Herbicidal oxadiazolidines” (priority 1999, dated 2004).

Legend:
pigweed = assay: Test B pre/postemergence pigweed; format: in vivo, Amaranthus retroflexus
In short: (§1)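 Herbicidal effect was estimated by eye on a ten-point control scale after plants spent twelve to sixteen days in a greenhouse following soil or foliar treatment. Foliar sprays targeted plants at one to four leaves; all doses were formulated in a non-phytotoxic solvent with surfactant.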

bedstraw = assay: Test B pre/postemergence bedstraw; format: in vivo, Galium aparine; settings: for Plant response rating, Bedstraw: Rate 125 g/ha
In short: as §1

surinam grass = assay: Test B pre/postemergence surinam grass; format: in vivo, Brachiaria decumbens
In short: as §1

wheat = assay: Test B pre/postemergence wheat; format: in vivo, Triticum aestivum
In short: as §1

cocklebur = assay: Test B pre/postemergence cocklebur; format: in vivo, Xanthium strumarium
In short: as §1

rape = assay: Test B pre/postemergence rape; format: in vivo, Brassica napus
In short: as §1

morningglory = assay: Test B pre/postemergence morningglory; format: in vivo, Ipomoea hederacea
In short: as §1

wild oat = assay: Test B pre/postemergence wild oat; format: in vivo, Avena fatua
In short: as §1

soybean = assay: Test B pre/postemergence soybean; format: in vivo, Glycine max
In short: as §1

crabgrass = assay: Test B pre/postemergence crabgrass; format: in vivo, Digitaria sanguinalis
In short: as §1

sugar beet = assay: Test B pre/postemergence sugar beet; format: in vivo, Beta vulgaris
In short: as §1

corn = assay: Test B pre/postemergence corn; format: in vivo, Zea mays
In short: as §1

purple nutsedge = assay: Test B pre/postemergence purple nutsedge; format: in vivo, Cyperus rotundus
In short: as §1

blackgrass = assay: Test B pre/postemergence blackgrass; format: in vivo, Alopecurus myosuroides
In short: as §1

velvetleaf = assay: Test B pre/postemergence velvetleaf; format: in vivo, Abutilon theophrasti
In short: as §1

giant foxtail = assay: Test B pre/postemergence giant foxtail; format: in vivo, Setaria faberii
In short: as §1

[1] = Preemergence, Rate 62 g/ha, scale of 0 to 10 where 0 is no effect and 10 is complete control
[2] = Preemergence, Rate 125 g/ha, scale of 0 to 10 where 0 is no effect and 10 is complete control
[3] = Preemergence, Rate 250 g/ha, scale 0 (no effect) to 10 (complete control)
[4] = Rate 500 g/ha, Preemergence, scale 0 to 10 (0 no effect, 10 complete control)
[5] = Preemergence, scale of 0 to 10 where 0 is no effect and 10 is complete control
[6] = Postemergence, Rate 62 g/ha, scale 0 to 10, 0 is no effect, 10 is complete control
[7] = Postemergence, Rate 125 g/ha, scale of 0 to 10 where 0 is no effect and 10 is complete control
[8] = Rate 62 g/ha, Preemergence, scale 0 to 10
[9] = Rate 250 g/ha, Postemergence, scale 0 to 10, 0 is no effect, 10 is complete control
[10] = Rate 500 g/ha, Postemergence, scale 0 to 10, 0 is no effect, 10 is complete control

C=C(Cn1c(=O)on(C(=O)N(c2ccc(F)cc2)C(C)C)c1=O)C(=O)OC [Compound 732]
0: Redroot pigweed plant response rating (pigweed; [1]) | Plant response rating, Redroot pigweed (pigweed; [2]) | Redroot pigweed plant response rating (pigweed; [3]) | Redroot pigweed plant response rating (pigweed; [4]) | Bedstraw plant response rating (bedstraw; [1]) | Plant response rating, Bedstraw (bedstraw; [5]) | Bedstraw plant response rating (bedstraw; [3]) | Bedstraw plant response rating (bedstraw; [4]) | B. signalgrass plant response rating (surinam grass; [1]) | Plant response rating, B. signalgrass (surinam grass; [2]) | B. signalgrass plant response rating (surinam grass; [3]) | B. signalgrass plant response rating (surinam grass; [4]) | Wheat plant response rating (wheat; [1]) | Plant response rating, Wheat (wheat; [2]) | Wheat plant response rating (wheat; [3]) | Wheat plant response rating (wheat; [4]) | Cocklebur plant response rating (cocklebur; [1]) | Plant response rating, Cocklebur (cocklebur; [2]) | Cocklebur plant response rating (cocklebur; [3]) | Cocklebur plant response rating (cocklebur; [4]) | Rape plant response rating (rape; [1]) | Plant response rating, Rape (rape; [2]) | Rape plant response rating (rape; [3]) | Rape plant response rating (rape; [4]) | Morningglory plant response rating (morningglory; [1]) | Plant response rating, Morningglory (morningglory; [2]) | Morningglory plant response rating (morningglory; [3]) | Morningglory plant response rating (morningglory; [4]) | Wild oats plant response rating (wild oat; [1]) | Plant response rating, Wild oats (wild oat; [2]) | Wild oats plant response rating (wild oat; [3]) | Wild oats plant response rating (wild oat; [4]) | Soybean plant response rating (soybean; [1]) | Plant response rating, Soybean (soybean; [2]) | Soybean plant response rating (soybean; [3]) | Soybean plant response rating (soybean; [4]) | Crabgrass plant response rating (crabgrass; [1]) | Plant response rating, Crabgrass (crabgrass; [2]) | Crabgrass plant response rating (crabgrass; [3]) | Crabgrass plant response rating (crabgrass; [4]) | Sugarbeets plant response rating (sugar beet; [1]) | Plant response rating, Sugarbeets (sugar beet; [2]) | Sugarbeets plant response rating (sugar beet; [3]) | Sugarbeets plant response rating (sugar beet; [4]) | Corn plant response rating (corn; [1]) | Plant response rating, Corn (corn; [2]) | Corn plant response rating (corn; [3]) | Corn plant response rating (corn; [4]) | Nutsedge plant response rating (purple nutsedge; [1]) | Nutsedge plant response rating (purple nutsedge; [3]) | Nutsedge plant response rating (purple nutsedge; [4]) | Blackgrass plant response rating (blackgrass; [1]) | Plant response rating, Blackgrass (blackgrass; [2]) | Blackgrass plant response rating (blackgrass; [3]) | Blackgrass plant response rating (blackgrass; [4]) | Velvetleaf plant response rating (velvetleaf; [1]) | Plant response rating, Velvetleaf (velvetleaf; [2]) | Velvetleaf plant response rating (velvetleaf; [3]) | Velvetleaf plant response rating (velvetleaf; [4]) | Giant foxtail plant response rating (giant foxtail; [1]) | Plant response rating, Giant foxtail (giant foxtail; [2]) | Giant foxtail plant response rating (giant foxtail; [3]) | Giant foxtail plant response rating (giant foxtail; [4])

C#CC(CC)n1c(=O)on(C(=O)N(c2ccc(F)cc2)C(C)C)c1=O (stereo not shown) [Compound 753]
4: Plant response rating, Redroot pigweed (pigweed; [6]) | Cocklebur plant response rating (cocklebur; [10]) | Plant response rating, Wild oats (wild oat; [2]) | Soybean plant response rating (soybean; [9]) | Soybean plant response rating (soybean; [10]) | Crabgrass plant response rating (crabgrass; [7]) | Blackgrass plant response rating (blackgrass; [9]) | Blackgrass plant response rating (blackgrass; [10])
10: Redroot pigweed plant response rating (pigweed; [4]) | Morningglory plant response rating (morningglory; [10])
7: Redroot pigweed plant response rating (pigweed; [10]) | Plant response rating, B. signalgrass (surinam grass; [2]) | B. signalgrass plant response rating (surinam grass; [10]) | Rape plant response rating (rape; [3]) | Rape plant response rating (rape; [4])
5: Redroot pigweed plant response rating (pigweed; [7]) | Wheat plant response rating (wheat; [10]) | Plant response rating, Rape (rape; [2]) | Sugarbeets plant response rating (sugar beet; [9]) | Sugarbeets plant response rating (sugar beet; [10]) | Blackgrass plant response rating (blackgrass; [8])
8: Plant response rating, Redroot pigweed (pigweed; [2]) | Wild oats plant response rating (wild oat; [3]) | Sugarbeets plant response rating (sugar beet; [4]) | Giant foxtail plant response rating (giant foxtail; [7]) | Giant foxtail plant response rating (giant foxtail; [9])
1: Plant response rating, Soybean (soybean; [6]) | Sugarbeets plant response rating (sugar beet; [3]) | Corn plant response rating (corn; [10])
3: Bedstraw plant response rating (bedstraw; [3]) | Bedstraw plant response rating (bedstraw; [4]) | Wheat plant response rating (wheat; [3]) | Wheat plant response rating (wheat; [4]) | Nutsedge plant response rating (purple nutsedge; [10]) | Plant response rating, Giant foxtail (giant foxtail; [6])
9: Redroot pigweed plant response rating (pigweed; [3]) | B. signalgrass plant response rating (surinam grass; [3]) | B. signalgrass plant response rating (surinam grass; [4]) | Morningglory plant response rating (morningglory; [9]) | Wild oats plant response rating (wild oat; [4]) | Plant response rating, Crabgrass (crabgrass; [2]) | Crabgrass plant response rating (crabgrass; [3]) | Crabgrass plant response rating (crabgrass; [8]) | Crabgrass plant response rating (crabgrass; [10]) | Crabgrass plant response rating (crabgrass; [4]) | Plant response rating, Blackgrass (blackgrass; [2]) | Blackgrass plant response rating (blackgrass; [3]) | Blackgrass plant response rating (blackgrass; [4]) | Plant response rating, Giant foxtail (giant foxtail; [2]) | Giant foxtail plant response rating (giant foxtail; [3]) | Giant foxtail plant response rating (giant foxtail; [8]) | Giant foxtail plant response rating (giant foxtail; [10]) | Giant foxtail plant response rating (giant foxtail; [4])
6: Redroot pigweed plant response rating (pigweed; [8]) | Redroot pigweed plant response rating (pigweed; [9]) | Bedstraw plant response rating (bedstraw; [10]) | Crabgrass plant response rating (crabgrass; [9])
2: B. signalgrass plant response rating (surinam grass; [1]) | B. signalgrass plant response rating (surinam grass; [9]) | Cocklebur plant response rating (cocklebur; [4]) | Rape plant response rating (rape; [8]) | Morningglory plant response rating (morningglory; [7]) | Wild oats plant response rating (wild oat; [10]) | Nutsedge plant response rating (purple nutsedge; [9]) | Blackgrass plant response rating (blackgrass; [7]) | Velvetleaf plant response rating (velvetleaf; [9]) | Velvetleaf plant response rating (velvetleaf; [10]) | Velvetleaf plant response rating (velvetleaf; [4])
0: Plant response rating, Bedstraw (bedstraw; [5]) | Bedstraw plant response rating (bedstraw; [8]) | Plant response rating, B. signalgrass (surinam grass; [6]) | B. signalgrass plant response rating (surinam grass; [7]) | Plant response rating, Wheat (wheat; [6]) | Plant response rating, Wheat (wheat; [2]) | Wheat plant response rating (wheat; [8]) | Wheat plant response rating (wheat; [9]) | Plant response rating, Cocklebur (cocklebur; [6]) | Cocklebur plant response rating (cocklebur; [7]) | Plant response rating, Cocklebur (cocklebur; [2]) | Cocklebur plant response rating (cocklebur; [3]) | Cocklebur plant response rating (cocklebur; [8]) | Cocklebur plant response rating (cocklebur; [9]) | Plant response rating, Rape (rape; [6]) | Rape plant response rating (rape; [7]) | Rape plant response rating (rape; [9]) | Rape plant response rating (rape; [10]) | Plant response rating, Morningglory (morningglory; [2]) | Morningglory plant response rating (morningglory; [3]) | Morningglory plant response rating (morningglory; [8]) | Morningglory plant response rating (morningglory; [4]) | Plant response rating, Wild oats (wild oat; [6]) | Wild oats plant response rating (wild oat; [8]) | Wild oats plant response rating (wild oat; [9]) | Plant response rating, Soybean (soybean; [2]) | Soybean plant response rating (soybean; [3]) | Soybean plant response rating (soybean; [8]) | Soybean plant response rating (soybean; [4]) | Plant response rating, Crabgrass (crabgrass; [6]) | Plant response rating, Sugarbeets (sugar beet; [6]) | Plant response rating, Sugarbeets (sugar beet; [2]) | Sugarbeets plant response rating (sugar beet; [8]) | Plant response rating, Corn (corn; [6]) | Corn plant response rating (corn; [7]) | Plant response rating, Corn (corn; [2]) | Corn plant response rating (corn; [3]) | Corn plant response rating (corn; [8]) | Corn plant response rating (corn; [9]) | Corn plant response rating (corn; [4]) | Plant response rating, Nutsedge (purple nutsedge; [6]) | Nutsedge plant response rating (purple nutsedge; [7]) | Plant response rating, Nutsedge (purple nutsedge; [2]) | Nutsedge plant response rating (purple nutsedge; [3]) | Nutsedge plant response rating (purple nutsedge; [8]) | Nutsedge plant response rating (purple nutsedge; [4]) | Plant response rating, Blackgrass (blackgrass; [6]) | Plant response rating, Velvetleaf (velvetleaf; [6]) | Plant response rating, Velvetleaf (velvetleaf; [2]) | Velvetleaf plant response rating (velvetleaf; [8])
